Patent publication US3940382A, “1,2'-Di-N-substituted kanamycin B compounds” (Zaidan Hojin Biseibutsu Kagaku Kenkyu Kai, priority 1973, dated 1976)
Converted amounts (≈) assume the structure as drawn.

Key:
[1] = tested on: Staphylococcus aureus Smith; assay: MIC, serial dilution on nutrient agar; type: cell-based; details: Staphylococcus aureus Smith; nutrient agar, 37°C, 18 hours; read-out: Minimum Inhibitory Concentrations
[2] = tested on: Staphylococcus aureus FDA 209P; assay: MIC, serial dilution on nutrient agar; type: cell-based; details: FDA209P; Staphylococcus aureus FDA 209P; nutrient agar, 37°C, 18 hours; read-out: Minimum Inhibitory Concentrations
[3] = tested on: Staphylococcus aureus Terejima; assay: MIC, serial dilution on nutrient agar; type: cell-based; details: Staphylococcus aureus Terejima; nutrient agar, 37°C, 18 hours; read-out: Minimum Inhibitory Concentrations
Sarcina lutea PCI 1001 = assay: MIC, serial dilution on nutrient agar; type: cell-based; details: Micrococcus luteus, PCI1001; Sarcina lutea PCI 1001; nutrient agar, 37°C, 18 hours; read-out: Minimum Inhibitory Concentrations
Bacillus anthracis = assay: microbe, parasite or virus in culture; type: cell-based; details: 18 h, read-out: Minimum Inhibitory Concentrations
[4] = tested on: Bacillus subtilis PCI 219; assay: MIC, serial dilution on nutrient agar; type: cell-based; details: PCI219; Bacillus subtilis PCI 219; nutrient agar, 37°C, 18 hours; read-out: Minimum Inhibitory Concentrations
[5] = tested on: Bacillus subtilis NRRL B-558; assay: MIC, serial dilution on nutrient agar; type: cell-based; details: NRRLB558; Bacillus subtilis NRRL B-558; nutrient agar, 37°C, 18 hours; read-out: Minimum Inhibitory Concentrations
[6] = tested on: Bacillus cereus ATCC 10702; assay: MIC, serial dilution on nutrient agar; type: cell-based; details: ATCC10702; Bacillus cereus ATCC 10702; nutrient agar, 37°C, 18 hours; read-out: Minimum Inhibitory Concentrations
[7] = tested on: Corynebacterium bovis 1810; assay: MIC, serial dilution on nutrient agar; type: cell-based; details: Corynebacterium bovis 1810; nutrient agar, 37°C, 18 hours; read-out: Minimum Inhibitory Concentrations
[8] = tested on: Mycobacterium smegmatis ATCC 607; assay: MIC, serial dilution on nutrient agar; type: cell-based; details: Mycolicibacterium smegmatis, ATCC607; Mycobacterium smegmatis ATCC 607; nutrient agar, 37°C, 18 hours; read-out: Minimum Inhibitory Concentrations
[9] = tested on: Shigella dysenteriae JS 11910; assay: MIC, serial dilution on nutrient agar; type: cell-based; details: JS11910, 18 h, read-out: Minimum Inhibitory Concentrations
[10] = tested on: Escherichia coli K-12 ML 1630; assay: MIC, serial dilution on nutrient agar; type: cell-based; details: K12ML1630, 37°C, 18 hours, read-out: Minimum Inhibitory Concentrations
Description: (§1) The minimum inhibitory concentrations (mcg/ml) of 1,2'-di-N-[(S)-4-amino-2-hydroxybutyryl]-kanamycin B (abbreviated as 1,2'-AHB-KMB), 1,2'-di-N-[(S)-4-amino-2-hydroxybutyryl]-3',4'-dideoxykanamycin B (abbreviated as 1,2'-AHB-DKB), 1,2'-di-N-DL-isoseryl-3',4'-dideoxykanamycin B (abbreviated as 1,2'-IS-DKB) and 1,2'-di-N-DL-isoseryl-kanamycin B (abbreviated as 1,2'-IS-KMB) against various microorganisms were determined according to serial dilution method using nutrient agar medium at 37°C, the estimation being effected after 18 hours incubation. For comparison, the minimum inhibitory concentrations of kanamycin B (abbreviated as KMB) and 3',4'-dideoxykanamycin B (abbreviated as DKB) were also determined in the same manner as mentioned above.

[11] = tested on: Shigella flexneri 4b JS 11811; assay: MIC, serial dilution on nutrient agar; type: cell-based; details: 4BJS11811, 37°C, 18 hours, read-out: Minimum Inhibitory Concentrations
Description: as §1

Shigella sonnei JS 11746 = assay: MIC, serial dilution on nutrient agar; type: cell-based; details: JS11746, 37°C, 18 hours, read-out: Minimum Inhibitory Concentrations
Description: as §1

Salmonella typhosa T-63 = assay: MIC, serial dilution on nutrient agar; type: cell-based; details: Salmonella enterica, 18 h, read-out: Minimum Inhibitory Concentrations
[12] = tested on: Salmonella enteritidis 1891; assay: MIC, serial dilution on nutrient agar; type: cell-based; details: Salmonella enterica, ENTERITIDIS, 18 h, read-out: Minimum Inhibitory Concentrations
Proteus vulgaris OX 19 = assay: MIC, serial dilution on nutrient agar; type: cell-based; details: OX19; Proteus vulgaris OX 19; nutrient agar, 37°C, 18 hours; read-out: Minimum Inhibitory Concentrations
[13] = tested on: Klebsiella pneumoniae PCI 602; assay: MIC, serial dilution on nutrient agar; type: cell-based; details: PCI602; Klebsiella pneumoniae PCI 602; nutrient agar, 37°C, 18 hours; read-out: Minimum Inhibitory Concentrations
[14] = tested on: Klebsiella pneumoniae 22 -3038; assay: MIC, serial dilution on nutrient agar; type: cell-based; details: 223038; Klebsiella pneumoniae 22 -3038; nutrient agar, 37°C, 18 hours; read-out: Minimum Inhibitory Concentrations
Escherichia coli NIHJ = assay: MIC, serial dilution on nutrient agar; type: cell-based; details: Escherichia coli NIHJ; nutrient agar, 37°C, 18 hours; read-out: Minimum Inhibitory Concentrations
Escherichia coli K-12 = assay: MIC, serial dilution on nutrient agar; type: cell-based; details: K12; Escherichia coli K-12; nutrient agar, 37°C, 18 hours; read-out: Minimum Inhibitory Concentrations
[15] = tested on: Escherichia coli K-12 ML 1629; assay: MIC, serial dilution on nutrient agar; type: cell-based; details: K12ML1629; Escherichia coli K-12 ML 1629; nutrient agar, 37°C, 18 hours; read-out: Minimum Inhibitory Concentrations
[16] = tested on: Escherichia coli K-12 ML 1410; assay: MIC, serial dilution on nutrient agar; type: cell-based; details: Escherichia coli, K12ML1410, 18 h, read-out: Minimum Inhibitory Concentrations
[17] = tested on: Escherichia coli K-12 ML 1410 R81; assay: MIC, serial dilution on nutrient agar; type: cell-based; details: 18 h, read-out: Minimum Inhibitory Concentrations
[18] = tested on: Escherichia coli LA290 R55; assay: MIC, serial dilution on nutrient agar; type: cell-based; details: LA290R55, 18 h, read-out: Minimum Inhibitory Concentrations
[19] = tested on: Escherichia coli LA290 R56; assay: MIC, serial dilution on nutrient agar; type: cell-based; details: LA290R56, 18 h, read-out: Minimum Inhibitory Concentrations
[20] = tested on: Escherichia coli LA290 R64; assay: MIC, serial dilution on nutrient agar; type: cell-based; details: LA290R64, 18 h, read-out: Minimum Inhibitory Concentrations
Escherichia coli W677 = assay: MIC, serial dilution on nutrient agar; type: cell-based; details: Escherichia coli W677; nutrient agar, 37°C, 18 hours; read-out: Minimum Inhibitory Concentrations
[21] = tested on: Escherichia coli JR66/W677; assay: MIC, serial dilution on nutrient agar; type: cell-based; details: Escherichia coli JR66/W677; nutrient agar, 37°C, 18 hours; read-out: Minimum Inhibitory Concentrations
[22] = tested on: Pseudomonas aeruginosa A3; assay: MIC, serial dilution on nutrient agar; type: cell-based; details: Pseudomonas aeruginosa, A3, 18 h, read-out: Minimum Inhibitory Concentrations
[23] = tested on: Pseudomonas aeruginosa No.12; assay: MIC, serial dilution on nutrient agar; type: cell-based; details: Pseudomonas aeruginosa No.12; nutrient agar, 37°C, 18 hours; read-out: Minimum Inhibitory Concentrations
[24] = tested on: Pseudomonas aeruginosa TI-13; assay: MIC, serial dilution on nutrient agar; type: cell-based; details: Pseudomonas aeruginosa, TI13, 18 h, read-out: Minimum Inhibitory Concentrations
[25] = tested on: Pseudomonas aeruginosa GN315; assay: MIC, serial dilution on nutrient agar; type: cell-based; details: Pseudomonas aeruginosa GN315; nutrient agar, 37°C, 18 hours; read-out: Minimum Inhibitory Concentrations
[26] = tested on: Pseudomonas aeruginosa 99; assay: MIC, serial dilution on nutrient agar; type: cell-based; details: Pseudomonas aeruginosa 99; nutrient agar, 37°C, 18 hours; read-out: Minimum Inhibitory Concentrations
[27] = tested on: kanamycin-resistant strains; details: strains phosphorylating the 3'-hydroxyl group of kanamycins; cited from earlier work
[28] = tested on: Escherichia coli JR66/W677; details: strain adenylylating the 2"-hydroxyl group; cited from earlier work
drug-resistant bacteria = details: cited from earlier work
[29] = tested on: kanamycin-resistant bacteria; details: some kanamycin-resistant bacteria; cited from earlier work
[30] = tested on: ribostamycin-resistant bacteria; details: some ribostamycin-resistant bacteria; cited from earlier work

For NC[C@@H]1CC[C@@H](N)[C@@H](O[C@H]2[C@H](O)[C@@H](O[C@H]3O[C@H](CO)[C@@H](O)[C@H](N)[C@H]3O)[C@H](N)C[C@@H]2N)O1 [DKB, 3',4'-dideoxykanamycin B, reference compound], the MIC [1] was < 0.2 µg/mL, the MIC [2] was < 0.2 µg/mL and the MIC [3] was < 0.2 µg/mL. For the same compound, the MIC (Sarcina lutea PCI 1001) was 6.25 µg/mL (≈ 13.8 µM), the MIC (Bacillus anthracis) was < 0.2 µg/mL and the MIC [4] was < 0.2 µg/mL. For the same compound, the MIC [5] was < 0.2 µg/mL, the MIC [6] was 0.78 µg/mL (≈ 1.73 µM) and the MIC [7] was 3.13 µg/mL (≈ 6.93 µM). For the same compound, the MIC [8] was 0.39 µg/mL (≈ 0.864 µM), the MIC [9] was 1.56 µg/mL (≈ 3.45 µM) and the MIC [10] was 0.78 µg/mL (≈ 1.73 µM). For the same compound, the MIC [11] was 1.56 µg/mL (≈ 3.45 µM), the MIC (Shigella sonnei JS 11746) was 0.78 µg/mL (≈ 1.73 µM) and the MIC (Salmonella typhosa T-63) was < 0.2 µg/mL. The MIC [12] was 1.56 µg/mL (≈ 3.45 µM), the MIC (Proteus vulgaris OX 19) was < 0.2 µg/mL and the MIC [13] was 0.39 µg/mL (≈ 0.864 µM). For the same compound, the MIC [14] was 100 µg/mL (≈ 221 µM), the MIC (Escherichia coli NIHJ) was 0.39 µg/mL (≈ 0.864 µM) and the MIC (Escherichia coli K-12) was 0.78 µg/mL (≈ 1.73 µM). The MIC [15] was 0.78 µg/mL (≈ 1.73 µM), the MIC [16] was 1.56 µg/mL (≈ 3.45 µM) and the MIC [17] was 1.56 µg/mL (≈ 3.45 µM). For the same compound, the MIC [18] was 50 µg/mL (≈ 111 µM), the MIC [19] was 12.5 µg/mL (≈ 27.7 µM) and the MIC [20] was 6.25 µg/mL (≈ 13.8 µM). The MIC (Escherichia coli W677) was 0.2 µg/mL (≈ 0.443 µM), the MIC [21] was 50 µg/mL (≈ 111 µM) and the MIC [22] was 1.56 µg/mL (≈ 3.45 µM). The MIC [23] was 0.78 µg/mL (≈ 1.73 µM), the MIC [24] was 1.56 µg/mL (≈ 3.45 µM) and the MIC [25] was > 100 µg/mL. For the same compound, the MIC [26] was 3.13 µg/mL (≈ 6.93 µM), the “effectiveness against kanamycin-resistant strains” value [27] was “actually effective” and the “activity against kanamycin-resistant strains such as Escherichia coli JR66/W677” value [28] was “practically inactive”. The “antibacterial activity against the drug-resistant bacteria” value (drug-resistant bacteria) was “improved antibacterial activity”.

For NCC[C@H](O)C(=O)N[C@@H]1C[C@H](N)[C@@H](O[C@H]2O[C@H](CN)[C@@H](O)[C@H](O)[C@H]2N)[C@H](O[C@@H]2O[C@H](CO)[C@@H](O)[C@H]2O)[C@H]1O [butirosin B, 1-N-[(S)-α-hydroxy-γ-amino-n-butyryl]-ribostamycin], the “activity against kanamycin-resistant bacteria” value [29] is listed as “active” and the “activity against ribostamycin-resistant bacteria” value [30] is listed as “active”.
